Patent publication US20130295666A1, “CRYSTALS OF GLUCOKINASE REGULATORY PROTEIN (GKRP)” (Boehringer Ingelheim International GmbH, priority 2011, published 2013)
Residue numbers refer to the chain shown, from its start. Names may count otherwise. Each block holds one molecule with its values, some of them ahead of it.

How the values were obtained:
hGKRP_C-His [1] = target: T1, hGKRP_C-His (Homo sapiens, UniProt Q14397); experiment: F1P competition with F6P in the coupled GK assay, using hGKRP_C-His; assay type: biochemical; conditions: in the presence of 6 μM F6P, read-out: EC50 of F1P to increase apparent GK activity (inactive GK-GKRP-F6P complex towards free GK)
T1 construct: made in house; host or cells: High FIVE insect cells (baculovirus, BAC-to-BAC)
T1 sequence (Q14397 with tags, fused parts or gaps): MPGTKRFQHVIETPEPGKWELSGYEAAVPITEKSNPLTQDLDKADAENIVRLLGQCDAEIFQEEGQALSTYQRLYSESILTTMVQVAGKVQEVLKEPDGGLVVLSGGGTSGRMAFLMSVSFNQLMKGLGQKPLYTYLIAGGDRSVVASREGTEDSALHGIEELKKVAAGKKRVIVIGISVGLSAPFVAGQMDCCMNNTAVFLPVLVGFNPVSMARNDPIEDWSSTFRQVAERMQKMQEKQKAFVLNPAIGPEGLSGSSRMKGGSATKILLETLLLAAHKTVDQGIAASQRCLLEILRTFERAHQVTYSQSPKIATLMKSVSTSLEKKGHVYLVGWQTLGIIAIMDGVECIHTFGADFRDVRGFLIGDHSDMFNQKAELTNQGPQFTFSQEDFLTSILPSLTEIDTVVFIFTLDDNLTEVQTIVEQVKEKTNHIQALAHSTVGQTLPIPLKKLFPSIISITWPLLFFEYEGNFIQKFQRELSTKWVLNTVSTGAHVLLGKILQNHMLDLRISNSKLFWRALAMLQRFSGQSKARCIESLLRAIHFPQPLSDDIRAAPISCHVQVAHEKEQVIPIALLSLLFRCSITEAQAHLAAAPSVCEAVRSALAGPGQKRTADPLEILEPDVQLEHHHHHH
Source text: (§1) GKRP preparations according to examples 1 and 2 have been examined with respect to their enzymatic activity. The applied enzymatic assay measures the effect of GKRP on glucokinase activity in the form of a glucose-6-phosphate dehydrogenase coupled assay at room temperature which is a modification of the method described by Van Schaftingen and Brocklehurst et al. (Van Schaftingen, E. (1989): A protein from rat liver confers to glucokinase the property of being antagonistically regulated by fructose 6-phosphate and fructose 1-phosphate; Eur. J. Biochem., 179, 179-184; Brocklehurst, K. J., Davies, R. A. and Agius, L. (2004): Differences in regulatory properties between human and rat glucokinase regulatory protein; Biochem. J., 378, 693-697).
(§2) The reaction mixture contained 150 mM KCl, 100 mM Hepes, 1 mM ATP, 1 mM MgCl2, 2 mM NADP^+, 2 mM dithiothreitol, pH 7.4, 5 units/ml glucose-6-phosphate dehydrogenase, 0.5 mg/ml BSA, 10 mM glucose, 6 μM fructose 6-P, 15 nM human liver glucokinase and 100 nM of the respective GKRP. The enzymatic reaction was started by the addition of ATP and glucose. The increase in optical density was measured at a wavelength 340 nm over 10 minutes. From these kinetic data, the slope was calculated and graphically depicted.
(§3) This effect was investigated using both hGKRP_C-His as well as hGKRP_C-His_K326T/K327T. […]

hGKRP_C-His [2] = target: T1, hGKRP_C-His; experiment: amide hydrogen (H/D) exchange, ligand-bound vs apo-GKRP; assay type: binding; conditions: 30 min H/D exchange; six regions; compared to apo-GKRP
Experimental: This experiment was performed to map the potential ligand binding sites via the amide hydrogen exchange behaviour of apo-GKRP in comparison to ligand-bound GKRP.
Amide hydrogen (H/D) exchange was initiated by a 20-fold dilution of 30 pmol hGKRP_C-His with or without ligand into D2O containing 100 mM HEPES, pD 7.4, 200 mM KCl, 100 mM MgCl2, and 2 mM DTT and incubated at room temperature.
After various time points (10 sec, 1 min and 30 min), the exchange reaction was quenched by decreasing the temperature to 0° C. and the pH to 2.5 with quench buffer (500 mM KH2PO4/H3PO4, pH 2.5, 2 M Urea, and 2 mM TCEP). Quenched samples were directly injected into an HPLC setup and analyzed on an electrospray ionization-quadrupole time of flight-mass spectrometer (QSTAR XL, Applied Biosystems) as described by Rist et al. (2003): Mapping temperature-induced conformational changes in the Escherichia coli heat shock transcription factor sigma 32 by amide hydrogen exchange, J. Biol. Chem., 278, 51415-51421.
The HPLC setup contained a column (2×20 mm) packed with Poroszyme immobilized pepsin (Applied Biosystems, Darmstadt, Germany). […] The deuterium content of the peptides was calculated by using the average mass difference between the isotopic envelopes of the deuterated and the undeuterated peptides. […]

hGKRP_C-His_K326T/K327T = target: T2, hGKRP_C-His_K326T/K327T (Homo sapiens, UniProt Q14397, K326T/K327T); experiment: F1P competition with F6P in the coupled GK assay, using hGKRP_C-His_K326T/K327T; assay type: biochemical; conditions: in the presence of 6 μM F6P, read-out: EC50 of F1P to increase apparent GK activity (inactive GK-GKRP-F6P complex towards free GK)
T2 construct: made in house; host or cells: High FIVE insect cells (baculovirus, BAC-to-BAC)
T2 sequence (Q14397 with tags, fused parts or gaps K326T/K327T): T1 sequence (Q14397 with tags, fused parts or gaps) with K326T, K327T
Source text: as §1, §2, §3

rat GKRP = target: T3, rat GKRP (Rattus norvegicus, UniProt Q07071); conditions: Van Schaftingen 1989, Veiga-da-Cunha and Van Schaftingen 2002; cited from earlier work
T3 sequence (Q07071 1-627): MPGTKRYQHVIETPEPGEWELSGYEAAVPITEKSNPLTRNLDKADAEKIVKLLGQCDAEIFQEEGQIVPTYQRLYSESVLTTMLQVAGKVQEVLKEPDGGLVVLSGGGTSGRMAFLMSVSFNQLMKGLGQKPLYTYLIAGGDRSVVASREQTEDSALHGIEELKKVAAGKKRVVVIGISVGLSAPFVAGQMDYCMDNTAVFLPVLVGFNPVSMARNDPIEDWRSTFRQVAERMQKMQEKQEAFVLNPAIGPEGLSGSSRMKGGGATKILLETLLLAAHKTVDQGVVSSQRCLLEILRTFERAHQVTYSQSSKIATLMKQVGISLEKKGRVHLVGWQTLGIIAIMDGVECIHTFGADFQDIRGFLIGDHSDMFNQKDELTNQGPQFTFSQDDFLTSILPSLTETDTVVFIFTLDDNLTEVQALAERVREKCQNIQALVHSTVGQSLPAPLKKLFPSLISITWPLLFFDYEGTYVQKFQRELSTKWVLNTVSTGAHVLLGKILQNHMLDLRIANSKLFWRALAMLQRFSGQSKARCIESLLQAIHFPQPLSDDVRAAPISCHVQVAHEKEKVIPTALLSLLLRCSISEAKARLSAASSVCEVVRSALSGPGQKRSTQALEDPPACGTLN

human liver glucokinase [3] = experiment: glucose-6-phosphate dehydrogenase coupled assay measuring the effect of GKRP on glucokinase activity; assay type: biochemical; conditions: GKRP dosed in excess over GK (15 nM), alone
Source text: as §1, §2

human liver glucokinase [4] = target: T4, human liver glucokinase (human, UniProt P35557-2 1-466, limits assumed); experiment: cell-based or functional assay
T4 sequence (looked up): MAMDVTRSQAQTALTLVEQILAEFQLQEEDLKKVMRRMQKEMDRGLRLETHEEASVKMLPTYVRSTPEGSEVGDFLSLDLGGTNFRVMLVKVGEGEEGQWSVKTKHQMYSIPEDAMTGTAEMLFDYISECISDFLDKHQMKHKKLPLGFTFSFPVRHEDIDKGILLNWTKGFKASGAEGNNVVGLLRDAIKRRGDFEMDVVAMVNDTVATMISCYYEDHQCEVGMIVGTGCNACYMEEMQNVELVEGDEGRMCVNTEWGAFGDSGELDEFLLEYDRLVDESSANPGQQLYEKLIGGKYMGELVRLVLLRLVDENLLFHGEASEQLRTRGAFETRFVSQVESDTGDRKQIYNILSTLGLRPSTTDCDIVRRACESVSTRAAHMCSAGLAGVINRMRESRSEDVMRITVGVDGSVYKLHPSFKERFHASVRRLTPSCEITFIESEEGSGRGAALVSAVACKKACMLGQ

Molecule: O=C(CO)[C@@H](O)[C@H](O)[C@H](O)COP(=O)(O)O [F6P, fructose-6-phosphate]
- protection of GKRP regions against H/D exchange by the ligand (hGKRP_C-His [2]): protection against H/D exchange
- Kd (rat GKRP): 20000 nM

B1: hGKRP_C-His (human glucokinase regulatory protein with C-terminal LEHHHHHH octapeptide) (other)
chain: T1 sequence (Q14397 with tags, fused parts or gaps)
- inhibition of the apparent GK enzymatic activity (human liver glucokinase [3]): > 90%
- IC50 of inhibition of GK activity in the presence of 6 µM fructose 6-phosphate (human liver glucokinase [4]): 74 nM
- IC50 of inhibition of apparent GK enzymatic activity (glucose-6-phosphate dehydrogenase coupled assay), GKRP alone (human liver glucokinase [4]): 124 nM

Further lines, with some results ahead:

- EC50 (hGKRP_C-His [1]): 6280 ± 1070 nM
- protection of GKRP regions against H/D exchange by the ligand (hGKRP_C-His [2]): protection against H/D exchange
- EC50 (hGKRP_C-His_K326T/K327T): 5080 ± 1380 nM
Molecule: O=C(COP(=O)(O)O)[C@@H](O)[C@H](O)[C@H](O)CO [F1P, fructose-1-phosphate]
- Kd (rat GKRP): 1000 nM

- IC50 of decrease of apparent GK activity in the presence of 6 µM F6P (human liver glucokinase [4]): 71 nM
- IC50 of decrease of apparent GK activity, GKRP alone (human liver glucokinase [4]): 116 nM
B2: hGKRP_C-His_K326T/K327T (other)
chain: T1 sequence (Q14397 with tags, fused parts or gaps) with K326T, K327T
